Columns and labels:
[1] = anion of ionic liquid; cited from earlier work
[2] = tested on: intestinal villi of Wistar rats; experiment: In vivo local delivery of antibody-CGLY via intrajejunal administration; settings: rat, 1 mg mL^−1 FITC-IgG in 50% v/v CGLY2:1, 2 h
Method: Rats receiving equivalent saline injection without FITC-IgG were used as the negative control group. After 2 h, the rats were sacrificed and jejunal tissues were harvested and preserved using Swiss-rolling technique^[14]. […] The tissues were then frozen at −80° C. in the presence of optimum cutting temperature (OCT) compound and tissue sections were cut into 25 m thickness. was visualized using a slide scanner microscope (ZEISS Axio Scan.Z1) and the images processed using Zen™ (Blue edition) software.

[3] = cation:anion 1:2
Description: IL selection. A library of ILs was designed and synthesized to assess siRNA delivery into skin. Cholinium was used as the cation in all ILs due to its biocompatibility. Several different anions were used to synthesize ILs (FIGS. 24A-24E). […] Other anions were chosen for several reasons. First, anions containing shorter linear carbon chains were chosen in contrast to geranic acid to assess the impact of the chain length on siRNA stability and delivery. Anions with aromatic groups were chosen since they might interact with the stacked RNA base pairs via electrostatic, hydrophobic, and polar interactions. All ILs were prepared at a stoichiometric ratio of 1:2 (cation:anion) and were assessed for stability and siRNA delivery. […] In addition, since both interleukin and ILs have been denoted as “IL,” for the purpose of clarity, all interleukins are referred by a numerical value throughout the manuscript.
(§1) Skin-penetrating IL-RNA complexes. The cholinium-based IL library was synthesized as described previously (26). Briefly, the cation, choline bicarbonate, and various anions were mixed at a 1:2 ratio to prepare ILs following salt metathesis reaction. […] The resulting IL solution was dried using a rotary evaporator at 20 mbar at 60° C. for 2 hours. The residual water was removed in a vacuum oven at 60° C. for 48 hours. The ILs that were viscous at RT were characterized via NMR with dimethyl sulfoxide (DMSO)-d6 on an Agilent DD2 600-MHz spectrometer (Supplementary Materials and Methods). ILs were mixed with RNA (100 μM) at a volumetric ratio of 1:1 and incubated for 30 min at RT. The RNA-IL solutions (1 ml) were dialyzed against 10 mM sodium phosphate buffer for 72 hours using Dialysis Cassettes (10,000 molecular weight cutoff, Invitrogen). The concentration of RNA was confirmed and normalized using a NanoDrop instrument (Thermo Fisher Scientific). The stability of the RNA in the IL solution was determined using CD and gel electrophoresis.

[4] = tested on: siRNA; settings: IL 50% (v/v), 30 min incubation, dialysis 72 h
Method: as §1
RNA concentrations were normalized in 10 mM sodium phosphate buffer and incubated for 30 mins at RT to ensure reduction and equilibrium, and then loaded into quartz cuvettes. Near-UV spectra were recorded from 200 nm to 310 nm at 20° C. by averaging 5 scans at 0.1 nm intervals for each sample. Spectrum Manager 2 was used to subtract the baseline and the spectra were plotted as molar ellipticity, [0] (deg.cm2.dmol-1).

[5] = tested on: porcine skin; experiment: Porcine skin penetration of Cy5-labeled siRNA in Franz diffusion cells (tape-stripping); assay type: in vitro ADME; settings: 24 h, IL 50% v/v or naked siRNA
Method: Skin penetration studies. Skin penetration studies were performed using porcine skin in FDCs, as described previously (40). A total volume of 20 μl of Cy5-labeled RNA (50 μM) in IL solutions was applied to the porcine skin surface and was incubated at 40° C. for 24 hours under occlusive conditions with moderate stirring. The skin permeability of RNA was visualized and quantified using confocal microscopy and tape-stripping techniques, respectively.
Porcine skin penetration ex-vivo studies Porcine skin studies were carried out in Franz diffusion cells (FDC) with penetration area of 1.77 cm^2. The porcine skin was obtained from Lampire Biological Laboratories, Pipersville, PA, USA. Briefly skins were thawed, hairs were trimmed, and washed with phosphate buffer saline (PBS, pH 7.4). A 36 mm punch was used to cut out a disc of the skin and a scalpel was used to get rid of the connective tissues and subcutaneous fat layers. […] 1 mL PBS was added to the donor chamber and the conductivity was measured using a waveform generator (Agilent 33120) and voltmeter (Fluke 87 True RMS Multimeter) at a frequency of 100 Hz and amplitude, 100 mV. Only skin samples with a measured transepidermal conductivity of less than […] were used for further studies. […] Following incubation, the skin was removed from the cell, washed gently with PBS and were further analyzed using tape-stripping and confocal microscopy. […]

CC(C)=CC(=O)O [3,3-dimethylacrylic acid]
pKa [1]: 5.02

O=S(=O)(O)c1ccc(O)cc1 [4-hydroxybenzenesulfonic acid]
pKa [1]: 9.11

O=C(O)c1cccc(-c2ccccc2)c1 [Bipheny1-3-carboxylic acid]
pKa [1]: 4.14

C[N+](C)(C)CCO.O=C([O-])CO [CGLY2:1, choline-glycolate]
FITC-IgG fluorescence signal on intestinal villi vs no-CGLY2:1 control [2]: over 4.5 fold

O=P(O)(O)Oc1ccccc1 [Phenylphosphoric acid]
pKa [1]: 9.99

choline and biphenyl-3-carboxylic acid [CABA]
physical state at room temperature [3]: solidified or formed a gel
siRNA secondary structure (CD, band at 210 nm) [4]: notable alteration in the a helix backbone

choline and dimethylacrylic acid [CADA]
physical state at room temperature [3]: viscous liquid
siRNA secondary structure (CD, band at 210 nm) [4]: notable alteration in the a helix backbone

choline and geranic acid [CAGE, reference compound]
physical state at room temperature [3]: viscous liquid
siRNA secondary structure (CD, band at 210 nm) [4]: notable alteration in the a helix backbone
siRNA delivered into the epidermis [5]: About 0.20 nmol/cm2

choline and phenylphosphoric acid [CAPP]
physical state at room temperature [3]: solidified or formed a gel

choline and phenylpropanoic acid [CAPA]
physical state at room temperature [3]: viscous liquid
siRNA secondary structure (CD, band at 210 nm) [4]: retained the secondary structure of siRNA
